Results reported in US8920832B2, “Composition for nucleic acid transfection” (Hokkaido System Science Co., Ltd., priority 2006, dated 2014).

Tests used:
HT1080 cells [1] = assay: Viable cell counting (WST-1), cell survival rate, HT1080 cells; format: cell-based
Protocol: (§1) Viable cell counting was carried out by means of a Cell Counting Kit (product of Dojindo Laboratories) based on WST-1 assay. […] Thereafter, absorbance was measured at 450 nm. A cell count vs. A450 standard curve was prepared on the basis of a separately prepared dilution series of different numbers of inoculated cells, and the number of viable cells was estimated by use of the standard curve.
(§2) The procedure of Test Example 5 was repeated, except that HeLa cells were replaced with HT1080 cells.
(§3) The procedure of Test Example 7 was repeated, except that HeLa cells were replaced with HT1080 cells.

HT1080 cells [2] = assay: Cytotoxicity score under microscope after DNA transfection, HT1080 cells; format: cell-based; design: scale not given here
From the text: as §2, §3

HeLa cells [3] = assay: Viable cell counting (WST-1), cell survival rate, HeLa cells; format: cell-based
Protocol: as §1

HeLa cells [4] = assay: Cytotoxicity score under microscope after DNA transfection, HeLa cells; format: cell-based
Protocol: (§4) HeLa cells were inoculated into a 96-well plate (7,500 cells/100 μL/well), followed by culturing for about 24 hours. DNA (pCMV-SPORT-βgal) was diluted with a DMEM medium, to thereby prepare a DNA-diluted solution having a DNA concentration of 8 μg/mL (for the case of 200 ng/well). […] The thus-obtained solution or Lipofectamine 2000 as a positive control (product of Invitrogen) was diluted with a DMEM medium so that the amount of the reconstituted liposome solution or Lipofectamine 2000 added to cells was “Amount of liposomes added (μL/well)” shown in Table 9 or 10. Immediately after dilution, the DNA-diluted solution (25 μL) was added to and mixed with the liposome-diluted solution (25 μL), and the mixture was allowed to stand still at room temperature for 30 minutes, to thereby form a DNA/liposome complex. The DNA/liposome complex (50 μL) was added to the inoculated HeLa cells (about 70 to about 90% confluent), to thereby initiate transfection. After culturing at 37° C. and 5% CO2 for one hour, a 10% FBS/DMEM medium (100 μL) was added to the culture liquid, followed by culturing at 37° C. and 5% CO2 for about 21 hours.
(§5) Each of the enhancers shown in Table 13 was diluted with a DMEM medium to different concentrations so that the amount of the enhancer finally added to cells was “Enhancer amount (μg/well)” shown in Table 13. […] The thus-diluted liposome solution was added to an equiamount of the above-diluted enhancer, followed by incubation at room temperature for 20 minutes. […] Subsequently, cytotoxicity was evaluated according to the aforementioned scores, and determination of β-gal activity, quantitative determination of protein, and viable cell counting were carried out.

HeLa cells [5] = assay: DNA (pCMV-SPORT-βgal) transfection into HeLa cells: β-gal activity; conditions: HeLa
Protocol: as §4
The culture supernatant was removed, and the cells were washed with PBS(−). Thereafter, determination of β-galactosidase (hereinafter may be abbreviated as “β-gal”) activity, quantitative determination of protein, and viable cell counting were carried out as described below.
After complete removal of PBS through suction, a lysis buffer (30 μL) was added to the cells, and the mixture was stirred and then allowed to stand still at −80° C. for 30 minutes or longer for freezing. After rapid thawing in a water bath at 37° C., the mixture was again allowed to stand still at −80° C. for 30 minutes or longer for freezing, followed by rapid thawing in a water bath at 37° C. Thereafter, centrifugation was carried out (2,000 g×10 minutes), and the resultant supernatant (sample) (10 μL) was added to a 96-well microplate.
Determination of β-gal activity was carried out by means of a β-gal assay kit (product of Invitrogen). […] A 2-Me-containing cleavage buffer was added (50 μL/well) to the sample or each of the standard-diluted solutions (10 μL), and 4 mg/mL aqueous ONPG solution was added (17 μL/well), followed by incubation at 37° C. for 30 minutes. After completion of incubation, a stop buffer was added (120 μL/well) for termination of reaction, and absorbance was measured at 405 nm.
as §5

HT1080 cells [6] = assay: DNA (pCMV-SPORT-βgal) transfection into HT1080 cells: β-gal activity; format: cell-based
From the text: as §2, §3

[7] = Formulation Example 4 0.38 μL/well, enhancer 0.625 μg/well
[8] = Formulation Example 4 0.38 μL/well, enhancer 1.25 μg/well
[9] = Formulation Example 4 0.38 μL/well, enhancer 2.5 μg/well
[10] = Formulation Example 4 0.38 μL/well, enhancer 5 μg/well
[11] = Formulation Example 4 0.38 μL/well, enhancer 10 μg/well
[12] = Formulation Example 4 0.75 μL/well, enhancer 0.625 μg/well
[13] = Formulation Example 4 0.75 μL/well, enhancer 1.25 μg/well
[14] = Formulation Example 4 0.75 μL/well, enhancer 2.5 μg/well
[15] = Formulation Example 4 0.75 μL/well, enhancer 5 μg/well
[16] = Formulation Example 4 0.75 μL/well, enhancer 10 μg/well

Question: With poly L-lysine as the substance, how does the Cell survival rate (HT1080 cells [1]; [7]) read?
Answer: 53%

Question: What about the Cell survival rate (HT1080 cells [1]; [8]) of the same substance?
Answer: 72%

Question: What about the Cell survival rate (HT1080 cells [1]; [9]) of the same substance?
Answer: 78%

Question: What about the Cell survival rate (HT1080 cells [1]; [10]) of the same substance?
Answer: 65%

Question: And the Cell survival rate (HT1080 cells [1]; [11])?
Answer: 80%

Question: And the Cell survival rate (HT1080 cells [1]; [12])?
Answer: 62%

Question: What about the Cell survival rate (HT1080 cells [1]; [13]) of the same substance?
Answer: 75%

Question: What about the Cell survival rate (HT1080 cells [1]; [14]) of the same substance?
Answer: 82%

Question: What about the Cell survival rate (HT1080 cells [1]; [15]) of the same substance?
Answer: 86%

Question: And the Cell survival rate (HT1080 cells [1]; [16])?
Answer: 82%

Question: And the Cytotoxicity score (HT1080 cells [2]; [7])?
Answer: 2.0

Question: What about the Cytotoxicity score (HT1080 cells [2]; [8]) of the same substance?
Answer: 2.0

Question: What about the Cytotoxicity score (HT1080 cells [2]; [9]) of the same substance?
Answer: 1.0

Question: And the Cytotoxicity score (HT1080 cells [2]; [10])?
Answer: 0.5

Question: And the Cytotoxicity score (HT1080 cells [2]; [11])?
Answer: 1.0

Question: And the Cytotoxicity score (HT1080 cells [2]; [12])?
Answer: 2.5

Question: What about the Cytotoxicity score (HT1080 cells [2]; [13]) of the same substance?
Answer: 2.0

Question: And the Cytotoxicity score (HT1080 cells [2]; [14])?
Answer: 1.5

Question: What about the Cytotoxicity score (HT1080 cells [2]; [15]) of the same substance?
Answer: 0.5

Question: And the Cytotoxicity score (HT1080 cells [2]; [16])?
Answer: 1.0

Question: What about the Cell survival rate (HeLa cells [3]; [7]) of the same substance?
Answer: 62%

Question: What about the Cell survival rate (HeLa cells [3]; [8]) of the same substance?
Answer: 71%

Question: What about the Cell survival rate (HeLa cells [3]; [9]) of the same substance?
Answer: 70%

Question: And the Cell survival rate (HeLa cells [3]; [10])?
Answer: 70%

Question: What about the Cell survival rate (HeLa cells [3]; [11]) of the same substance?
Answer: 76%

Question: And the Cell survival rate (HeLa cells [3]; [12])?
Answer: 73%

Question: What about the Cell survival rate (HeLa cells [3]; [13]) of the same substance?
Answer: 94%

Question: And the Cell survival rate (HeLa cells [3]; [14])?
Answer: 99%

Question: And the Cell survival rate (HeLa cells [3]; [15])?
Answer: 97%

Question: And the Cell survival rate (HeLa cells [3]; [16])?
Answer: 99%

Question: And the Cytotoxicity score (HeLa cells [4]; [7])?
Answer: 0.5

Question: And the Cytotoxicity score (HeLa cells [4]; [8])?
Answer: 0.0

Question: And the Cytotoxicity score (HeLa cells [4]; [9])?
Answer: 0.0

Question: What about the Cytotoxicity score (HeLa cells [4]; [10]) of the same substance?
Answer: 0.5

Question: And the Cytotoxicity score (HeLa cells [4]; [11])?
Answer: 0.5

Question: What about the Cytotoxicity score (HeLa cells [4]; [12]) of the same substance?
Answer: 1.0

Question: What about the Cytotoxicity score (HeLa cells [4]; [13]) of the same substance?
Answer: 0.5

Question: What about the Cytotoxicity score (HeLa cells [4]; [14]) of the same substance?
Answer: 0.0

Question: What about the Cytotoxicity score (HeLa cells [4]; [15]) of the same substance?
Answer: 0.0

Question: And the Cytotoxicity score (HeLa cells [4]; [16])?
Answer: 0.5

Question: What about the β-gal activity (HeLa cells [5]; [7]) of the same substance?
Answer: 23.9 mU/well

Question: What about the β-gal activity (HeLa cells [5]; [8]) of the same substance?
Answer: 3.4 mU/well

Question: What about the β-gal activity (HeLa cells [5]; [9]) of the same substance?
Answer: 0.6 mU/well

Question: And the β-gal activity (HeLa cells [5]; [10])?
Answer: 0.6 mU/well

Question: And the β-gal activity (HeLa cells [5]; [11])?
Answer: 0.1 mU/well

Question: What about the β-gal activity (HeLa cells [5]; [12]) of the same substance?
Answer: 54.1 mU/well

Question: What about the β-gal activity (HeLa cells [5]; [13]) of the same substance?
Answer: 6.6 mU/well

Question: What about the β-gal activity (HeLa cells [5]; [14]) of the same substance?
Answer: 1.5 mU/well

Question: What about the β-gal activity (HeLa cells [5]; [15]) of the same substance?
Answer: 0.7 mU/well

Question: And the β-gal activity (HeLa cells [5]; [16])?
Answer: 0.2 mU/well

Question: What about the β-gal activity (HT1080 cells [6]; [7]) of the same substance?
Answer: 76.7 mU/well

Question: And the β-gal activity (HT1080 cells [6]; [8])?
Answer: 49.5 mU/well

Question: What about the β-gal activity (HT1080 cells [6]; [9]) of the same substance?
Answer: 25.7 mU/well

Question: What about the β-gal activity (HT1080 cells [6]; [10]) of the same substance?
Answer: 12.2 mU/well

Question: And the β-gal activity (HT1080 cells [6]; [11])?
Answer: 8.8 mU/well

Question: And the β-gal activity (HT1080 cells [6]; [12])?
Answer: 98.0 mU/well

Question: What about the β-gal activity (HT1080 cells [6]; [13]) of the same substance?
Answer: 93.8 mU/well

Question: And the β-gal activity (HT1080 cells [6]; [14])?
Answer: 59.2 mU/well

Question: What about the β-gal activity (HT1080 cells [6]; [15]) of the same substance?
Answer: 42.7 mU/well

Question: What about the β-gal activity (HT1080 cells [6]; [16]) of the same substance?
Answer: 25.3 mU/well
